Experimental data published in US7166622B2, “Substituted phenylsulfonamide inhibitors of beta amyloid production” (Wyeth, priority 2002, dated 2007).
Where two headings read alike, the source gives them in different places.

How the values were obtained:
[1] = test system: beta amyloid production; test: Repressor Release Assay (RRA); type: cell-based; details: for fold induction at 20 µg/mL / APPI Fold Increase / APPI % of Example #98: Conc 20 μg/ml; for APPI % of Example #98: relative to Example 98
Summary of the method: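 CHO-K1 cells transiently co-transfected with pRSVO-luc and an APP-lacI construct, replated, then treated in duplicate for 36-48 h at 37 °C, 5% CO2. Compounds diluted in 25 mM Hepes, with Hepes/1% DMSO as diluent control. Luciferase read-out in relative light units; toxicity scored 1 non-toxic, 0 toxic.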

[2] = test system: CHO-K1 cells; test: Toxicity in RRA (loss of luciferase signal); details: toxicity = loss of signal (<0.75 fold increase)
Protocol: The beta amyloid inhibitory activity of the compounds of the present invention was determined using the Repressor Release Assay (RRA).
“Fold Increase” refers to the amount of luciferase activity (measured in relative light units) over diluent control. “SEM” refers to the standard error of the mean for fold increase.

[3] = luciferase activity (RLU) over diluent control, read-out: APPI Fold Increase
[4] = Conc 20 μg/ml, 1=non-toxic, 0=toxic
[5] = luciferase activity (RLU) over diluent control
[6] = luciferase activity over diluent control, read-out: APPI Fold Increase

| Structure (SMILES) | fold induction at 20 µg/mL [1, 3] | (%)APPI Toxicity [2, 4] | further results |
| --- | --- | --- | --- |
| CC(C)C[C@@H](c1ccccc1)[C@@H](CO)NS(=O)(=O)c1ccc(Cl)cc1 [Example 64, 4-chloro-N-[(1S,2S)-1-(hydroxymethyl)-4-methyl-2-phenylpentyl]benzenesulfonamide] | 1.7 | 1 (1=non-toxic) |  |
| CCCCCC[C@@H](c1ccccc1)[C@@H](CO)NS(=O)(=O)c1ccc(Cl)cc1 [Example 65, 4-chloro-N-[(1S,2S)-1-(hydroxymethyl)-2-phenyloctyl]benzenesulfonamide] | 1.9 | 1 (1=non-toxic) |  |
| CC[C@@H](c1ccco1)[C@@H](CO)NS(=O)(=O)c1ccc(Cl)cc1 [Example 66, 4-chloro -N-[(1S,2R)-2-(2-furyl)-1-(hydroxymethyl)butyl]benzenesulfonamide] | 5.5 | 1 (1=non-toxic) |  |
| CC(C)C[C@@H](c1ccco1)[C@@H](CO)NS(=O)(=O)c1ccc(Cl)cc1 [Example 67, 4-chloro -N-[(1S,2R)-2-(2-furyl)-1-(hydroxymethyl)-4-methylpentyl]benzenesulfonamide] | 3.9 | 1 (1=non-toxic) |  |
| CCCCCC[C@@H](c1ccco1)[C@@H](CO)NS(=O)(=O)c1ccc(Cl)cc1 [Example 68, 4-chloro-N-[(1S,2R)-2-(2-furyl)-1-(hydroxymethyl)octyl]benzenesulfonamide] | 2 | 1 (1=non-toxic) |  |
| CC(C)[C@H](C)[C@@H](CO)NS(=O)(=O)c1ccc(Cl)cc1 [Example 69, 4-chloro-N-[(1S,2S)-1-(hydroxymethyl)-2,3-dimethylbutyl]benzenesulfonamide] | 3.1 | 1 (1=non-toxic) |  |
| CCCCCC[C@@H](C(C)C)[C@@H](CO)NS(=O)(=O)c1ccc(Cl)cc1 [Example 70, 4-chloro-N-[(1S,2S)-1-(hydroxymethyl)-2-isopropyloctyl]benzenesulfonamide] | 2 | 1 (1=non-toxic) |  |
| COc1ccc([C@@H](C)[C@@H](CO)NS(=O)(=O)c2ccc(Br)cc2)cc1 [Example 71, 4-bromo-N-[(1S,2R)-1-(hydroxymethyl)-2-(4-methoxyphenyl)propyl]benzenesulfonamide] | 1.9 | 1 (1=non-toxic) |  |
| CCCCCC[C@@H](C)[C@@H](CO)NS(=O)(=O)c1ccc(Br)cc1 [Example 72, 4-bromo-N-[(1S,2R)-1-(hydroxymethyl)-2-methyloctyl] benzenesulfonamide] |  | 1 (1=non-toxic) | APPI Fold Increase [1, 5]: 3.2; APPI % of Example #98 [1]: 76.4% |
| CC[C@H](CC(C)C)[C@@H](CO)NS(=O)(=O)c1ccc(Br)cc1 [Example 73, 4-bromo-N-[(1S,2R)-2-ethyl-1-(hydroxymethyl)-4-methylpentyl]benzenesulfonamide] | 5.4 | 1 (1=non-toxic) |  |
| CC[C@H](c1ccc(OC)cc1)[C@@H](CO)NS(=O)(=O)c1ccc(Br)cc1 [Example 74, 4-bromo-N-[(1S,2R)-1-(hydroxymethyl)-2-(4-methoxyphenyl)butyl]benzenesulfonamide] | 2.5 | 1 (1=non-toxic) |  |
| CCCCCC[C@@H](CC)[C@@H](CO)NS(=O)(=O)c1ccc(Br)cc1 [Example 75, 4-bromo-N-[(1S,2R)-2-ethyl-1-(hydroxymethyl)octyl]benzenesulfonamide] | 4.8 | 1 (1=non-toxic) |  |
| CCC[C@H](C)[C@@H](CO)NS(=O)(=O)c1ccc(Br)cc1 [Example 76, 4-bromo-N-[(1S,2S)-1-(hydroxymethyl)-2-methylpentyl]benzenesulfonamide] | 5.8 | 1 (1=non-toxic) |  |
| CCC[C@H](CC)[C@@H](CO)NS(=O)(=O)c1ccc(Br)cc1 [Example 77, 4-bromo-N-[(1S,2S)-2-ethyl-1-(hydroxymethyl)pentyl]benzenesulfonamide] | 5.9 | 1 (1=non-toxic) |  |
| CCC[C@H](CC(C)C)[C@@H](CO)NS(=O)(=O)c1ccc(Br)cc1 [Example 78, 4-bromo-N-[(1S,2R)-1-(hydroxymethyl)-4-methyl-2-propylpentyl]benzenesulfonamide] | 4.4 | 1 (1=non-toxic) |  |
| CCCCCC[C@@H](CCC)[C@@H](CO)NS(=O)(=O)c1ccc(Br)cc1 [Example 79, 4-bromo-N-[(1S,2R)-1-(hydroxymethyl)-2-propyloctyl]benzenesulfonamide] | 1.5 | 1 (1=non-toxic) |  |
| CCCCC[C@H](C)[C@@H](CO)NS(=O)(=O)c1ccc(Br)cc1 [Example 80, 4-bromo-N-[(1S,2S)-1-(hydroxymethyl)-2-methylheptyl]benzenesulfonamide] | 3.9 | 1 (1=non-toxic) |  |

| Structure (SMILES) | fold induction at 20 µg/mL [1, 3] | (%)APPI Toxicity [2, 4] | further results |
| --- | --- | --- | --- |
| CCCCC[C@H](CC)[C@@H](CO)NS(=O)(=O)c1ccc(Br)cc1 [Example 81, 4-bromo-N-[(1S,2S)-2-ethyl-1-(hydroxymethyl)heptyl]benzenesulfonamide] | 5 | 1 (1=non-toxic) |  |
| C[C@@H](c1ccccc1)[C@@H](CO)NS(=O)(=O)c1ccc(Br)cc1 [Example 82, 4-bromo-N-[(1S,2S)-1-(hydroxymethyl)-2-phenylpropyl]benzenesulfonamide] | 2.6 | 1 (1=non-toxic) |  |
| CC[C@@H](c1ccccc1)[C@@H](CO)NS(=O)(=O)c1ccc(Br)cc1 [Example 83, 4-bromo-N-[(1S,2S)-1-(hydroxymethyl)-2-phenylbutyl]benzenesulfonamide] | 3.4 | 1 (1=non-toxic) |  |
| C[C@@H](c1ccco1)[C@@H](CO)NS(=O)(=O)c1ccc(Br)cc1 [Example 84, 4-bromo-N-[(1S,2R)-2-(2-furyl)-1-(hydroxymethyl)propyl]benzenesulfonamide] | 3.4 | 1 (1=non-toxic) |  |
| CC[C@@H](c1ccco1)[C@@H](CO)NS(=O)(=O)c1ccc(Br)cc1 [Example 85, 4-bromo-N-[(1S,2R)-2-(2-furyl)-1-(hydroxymethyl)butyl]benzenesulfonamide] | 3.4 | 1 (1=non-toxic) |  |
| CC(C)C[C@@H](c1ccco1)[C@@H](CO)NS(=O)(=O)c1ccc(Br)cc1 [Example 86, 4-bromo-N-[(1S,2R)-2-(2-furyl)-1-(hydroxymethyl)-4-methylpentyl]benzenesulfonamide] | 1.6 | 1 (1=non-toxic) |  |
| CC(C)C[C@@H](C(C)C)[C@@H](CO)NS(=O)(=O)c1ccc(Br)cc1 [Example 87, 4-bromo-N-[(1S,2S)-1-(hydroxymethyl)-2-isopropyl-4-methylpentyl]benzenesulfonamide] | 8.8 | 1 (1=non-toxic) |  |
| CCCCCC[C@H](CC)[C@@H](CO)NS(=O)(=O)c1ccc(Cl)cc1 [Example 88, 4-Chloro-N-[(1 S,2S)-2-ethyl-1-(hydroxymethyl)octyl]benzenesulfonamide] | 6.4 | 1 (1=non-toxic) |  |
| CCCCCC[C@@H](CC)[C@@H](CO)NS(=O)(=O)c1ccc(Cl)cc1 [Example 89, 4-chloro-N-[(1S,2R)-2-ethyl-1-(hydroxymethyl)octyl] benzenesulfonamide] |  | 1 (1=non-toxic) | APPI Fold Increase [1, 5]: 22.4; APPI % of Example #98 [1]: 97.9% |
| CC[C@H](C)[C@@H](CO)N(C)S(=O)(=O)c1ccc(Cl)cc1 [Example 90, 4-Chloro-N-methyl-N-[(1S,2S)-1-(hydroxymethyl)-2-methylbutyl]benzenesulfonamide] |  |  | fold induction at 20 µg/mL [1, 6]: 1.6; (%)APPI Toxicity ([2]; Conc 20 μg/ml): 1 (1=non-toxic) |
| CC[C@H](C)[C@@H](CO)NS(=O)(=O)c1ccc(Cl)cc1 [Example 91, 4-Chloro-N-[(1S,2S)-1-(hydroxymethyl)-2-methylbutyl]benzenesulfonamide] |  |  | fold induction at 3 µg/mL ([1]; Conc 3 μg/ml, luciferase activity over diluent control, read-out: APPI Fold Increase): 1.71; fold induction at 10 µg/mL ([1]; Conc 10 μg/ml, luciferase activity over diluent control, read-out: APPI Fold Increase): 2.38; (%)APPI Toxicity ([2]; Conc 3 μg/ml): 1 (1=non-toxic); (%)APPI Toxicity ([2]; Conc 10 μg/ml): 1 (1=non-toxic); (%)APPI Toxicity ([2]; Conc 20 μg/ml): 1 (1=non-toxic) |
| CC(C)C[C@@H](CO)NS(=O)(=O)c1ccc(Cl)cc1 [Example 92, 4-chloro-N-[(1S)-1-(hydroxymethyl)-3-methylbutyl]benzenesulfonamide] |  |  | fold induction at 20 µg/mL [1, 6]: 1.7; (%)APPI Toxicity ([2]; Conc 20 μg/ml): 1 (1=non-toxic) |
| C[C@@H](NS(=O)(=O)c1ccc(Cl)cc1)[C@@H](O)c1ccccc1 [Example 93, 4-chloro-N-[(1R,2S)-2-hydroxy-1-methyl-2-phenylethyl]benzenesulfonamide] |  |  | fold induction at 20 µg/mL [1, 6]: 1.5; (%)APPI Toxicity ([2]; Conc 20 μg/ml): 1 (1=non-toxic) |
| O=S(=O)(NC1(CO)CCCC1)c1ccc(Br)cc1 [Example 94, 4-bromo-N-[1-(hydroxymethyl)cyclopentyl]benzenesulfonamide] |  |  | fold induction at 20 µg/mL [1, 6]: 2.5; (%)APPI Toxicity ([2]; Conc 20 μg/ml): 1 (1=non-toxic) |
| O=S(=O)(N[C@H](CO)CC1CCCCC1)c1ccc(Cl)cc1 [Example 95, 4-chloro-N-[(1S)-2-cyclohexyl-1-(hydroxymethyl)ethyl]benzenesulfonamide] |  |  | fold induction at 20 µg/mL [1, 6]: 1.6; (%)APPI Toxicity ([2]; Conc 20 μg/ml): 1 (1=non-toxic) |
| O=S(=O)(N[C@H](CO)Cc1ccc(OCc2ccccc2)cc1)c1ccc(Cl)cc1 [Example 96, N-{(1S)-1-[4-(benzyloxy)benzyl]-2-hydroxyethyl}-4-chlorobenzenesulfonamide] |  |  | fold induction at 20 µg/mL [1, 6]: 1.5; (%)APPI Toxicity ([2]; Conc 20 μg/ml): 1 (1=non-toxic) |
